Results on five compounds are retold here after patent US7700584B2 (Hangzhou Minsheng Pharmaceuticals Co., Ltd., priority 2004, dated 2010).

In brackets after ≈: the same amount, converted by molar mass. Where two headings read alike, the source gives them in different places.

In data set [1] the target is T1, HIV-1 proteinase (HIV-1 PR) (Human immunodeficiency virus type 1 group M subtype B, UniProt P04585).
T1 construct: HIV-1 proteinase digests the fluorescent-labeled substrate; purchased
As to the kind of experiment: Screening for in vitro activity against HIV-1 proteinase. It counts as biochemical. The settings on record: for inhibition at 0.08 µg/mL / inhibition at 0.4 µg/mL / inhibition at 2 µg/mL / inhibition at 10 µg/mL: read-out: Inhibition rate; for inhibition at 50 µg/mL: read-out: Inhibition rate, 50 μg/ml. The gist of the method: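 Inhibition was scored from product fluorescence after the enzyme was added to buffer holding the labeled substrate and the test sample. Samples were five serial 5× dilutions in water from a DMSO solution. Indinavir served as the reference control; the enzyme was recombinant HIV-1 PR.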

A further data set concerns MDCK (dog kidney) cells. As to the kind of experiment: Toxicity TC50 of the samples in MDCK cells (influenza screening). The settings on record: concentration of 50% toxicity, given as dilution of the stock solution.
In data set [2] the test system is SMMC-7721 human hepatic carcinoma. As to the kind of experiment: In vitro inhibition rate to tumor cells (MTT), SMMC-7721. It counts as cell-based. The settings on record: for inhibition at 50 µg/mL: Homo sapiens; for inhibition rate, Results (%) SMMC-7721: 50 μg/ml.
For data set [3], the system named is MCF-7 human mammary adenocarcinoma. As to the kind of experiment: In vitro anti-tumor IC50 (MTT), MCF-7. It counts as cell-based. The settings on record: Homo sapiens, MCF7; Table 4; read-out: IC50 (ug/ml) against tumor cell lines, MCF. As to the method: (1) Single cell suspension was seeded into 96-well plates (the cells was diluted in the PRMI-1640 minimum medium to 3×10^4 cells/ml, […] diluted cells/well). […] The experiments were performed in quadruplicate.
(2) The medium was removed. Solutions of the anti-tumor agents (50 compounds) were prepared in a freshly prepared medium at serial concentrations. […] of the solution was added into each well. Incubation was continued for 48 hours.
(3) 20 ug of 2 mg/ml MTT was added into each well, and incubated for 4 hours.
(4) The medium was removed from the well. The microplates were swiftly turned down to throw-off the medium. […] of DMSO was added into each well, and vortexed at room temperature for 10 minutes.
(5) OD value (λ=570 nm) was measured with an Enzyme-Linked Detector.
(6) The graph of cell vitality was plotted, and IC50 was calculated.

Setting [4] is: IC50, five 5× serial dilutions from 50 μg/ml.
The mark [5] stands for this setting: SMMC-7721, 50 μg/ml, Table 1, read-out: inhibition rate, Results (%) SMMC-7721.
Where [6] appears, read: SMMC-7721, 50 μg/ml, Table 2 (repeated screening), read-out: inhibition rate, Results (%) SMMC-7721.

As to `C=C1CC2(OC(=O)C(C)C)OC3(CC2C(C)C)C(C)CCC13` (stereo not shown) [Compound 3, Curcumol isobutyrate], the inhibition at 0.08 µg/mL in data set [1] (0.08 μg/ml) is 4.98%. Also, the inhibition at 0.4 µg/mL in data set [1] (0.40 μg/ml) was determined as 13.5%. In addition, the inhibition at 2 µg/mL in data set [1] (2.0 μg/ml) is 9.64%. For the same compound, the inhibition at 10 µg/mL in data set [1] (10 μg/ml) came to 12.1%. For the same compound, the IC50 in data set [1] (setting [4]) was greater than 163 µM. The figures for the inhibition at 50 µg/mL in data set [1], in data set [2] (setting [5]) and in data set [2] (setting [6]) were 5.55%, 8.02% and 8.96%, respectively. Further, the TC50 with MDCK (dog kidney) cells is recorded as 1/8403 of the stock solution.
As to `CC(C)C1CC23OC1(O)C/C(=C\Nc1ccc(O)cc1)C2CCC3C` (stereo not shown) [Compound 5, Curcumol p-hydroxy aniline], the Inhibition rate in data set [1] (0.08 μg/ml) was 4.38; in data set [1] (0.40 μg/ml), 9.00; in data set [1] (2.0 μg/ml), 10.30; in data set [1] (50 μg/ml), 1.01. Further, the inhibition at 10 µg/mL in data set [1] (10 μg/ml) amounted to 11.2%. In addition, the IC50 in data set [1] (five 5× serial dilutions from 50 μg/ml, read-out: IC50) is greater than 146 µM; in data set [3] it was 1 µg/mL (≈ 2.91 µM). Further, the inhibition at 50 µg/mL in data set [2] (setting [6]) amounted to 86.9%; in data set [2] (SMMC-7721, read-out: inhibition rate, Results (%) SMMC-7721, 50 μg/ml, Table 1), 85%.
On to `CC(C)C1CC23OC1(O)CC(=CN1CCNCC1)C2CCC3C` (stereo not shown) [Compound 7, Curcumol piperazine], for which the inhibition at 0.08 µg/mL in data set [1] (0.08 μg/ml) stood at 14.1%. For the same compound, the results for the Inhibition rate in data set [1] (0.40 μg/ml) and in data set [1] (10 μg/ml) were 6.32 and 3.51, respectively. Besides, in data set [1] (2.0 μg/ml), the inhibition at 2 µg/mL came to 4.31%. Also, the IC50 in data set [1] (setting [4]) was greater than 156 µM; in data set [3] it was 3.2 µg/mL (≈ 9.99 µM). The inhibition at 50 µg/mL in data set [1] turned out to be 1.43%; in data set [2] (setting [5]), 3.34%; in data set [2] (setting [6]) it was 1.23%.
In the case of `CC(C)C1CC23OC1(O)CC(=CBr)C2CCC3C` (stereo not shown) [Compound 17, Curcumol monobromide], the inhibition at 0.08 µg/mL in data set [1] (0.08 μg/ml) was 3.78%. In addition, the inhibition at 0.4 µg/mL in data set [1] (0.40 μg/ml) is 10.7%. Further, the inhibition at 2 µg/mL in data set [1] (2.0 μg/ml) was -6%. Moreover, the inhibition at 10 µg/mL in data set [1] (10 μg/ml) is 6.15%. Further, the IC50 in data set [1] (setting [4]) is greater than 159 µM; in data set [3] it was 4.63 µg/mL. For the same compound, the values for the inhibition at 50 µg/mL in data set [1], in data set [2] (setting [5]) and in data set [2] (setting [6]) were 9.94%, 10.2% and 0.32%, respectively.
`C=C1CC2(OS(=O)(=O)O)OC3(CC2C(C)C)C(C)CCC13` (stereo not shown) [Compound 20, Curcumol sulfonate]: the inhibition at 0.08 µg/mL in data set [1] (0.08 μg/ml) came out at 8.76%. Besides, in data set [1] (0.40 μg/ml), the inhibition at 0.4 µg/mL stood at 7.44%. Further, the inhibition at 2 µg/mL in data set [1] (2.0 μg/ml) came out at 10.6%. Also, in data set [1] (10 μg/ml), the inhibition at 10 µg/mL stood at 9.46%. This compound also gave an Inhibition rate in data set [1] (50 μg/ml) of 12.68. In addition, the values for the IC50 in data set [1] (setting [4]) and in data set [3] were greater than 158 µM and 4.98 µg/mL, respectively. Moreover, the “inhibition rate, Results (%) SMMC-7721” value in data set [2] (Table 1) came out at 18.08%; in data set [2] (Table 2 (repeated screening)) it was 1.23%; in data set [2] (Table 3 (repeated screening)), 6.56%.
